Assay results taken from PubChem BioAssay AID250 (DTP/NCI, 2004).
“And” between values parts separate entries of the source, which are not always exact repeats. Identical values can stand only once. Toxic doses and inconclusive results are not listed.

Test system: BDF1 mice, L1210 leukemia sc, survival T/C
Assay: NCI In Vivo Anticancer Drug Screen. Data for tumor model L1210 Leukemia (subcutaneous) in B6D2F1 (BDF1) mice
Settings: endpoint: median survival time, higher = longer survival
Summary of the method: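 Antitumor activity is assessed in mice with transplanted tumors by comparing the treated group (T) with the vehicle control group (C).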

CC(=O)NC(CCC(=O)C=[N+]=N)C(=O)O (stereo not drawn)
T/C (dose: 0.07 mg/kg/injection, schedule: Q#A X Z (sc), vehicle: water): 100 % of control | T/C (dose: 0.11 mg/kg/injection, schedule: Q#A X Z (sc), vehicle: water): 109 % of control | T/C (dose: 0.14 mg/kg/injection, schedule: Q01DX Z (sc), vehicle: water): 95 % of control | T/C (dose: 0.19 mg/kg/injection, schedule: Q01DX Z (sc), vehicle: water): 110 % of control | T/C (dose: 0.19 mg/kg/injection, schedule: Q#A X Z (sc), vehicle: water): 109 % of control | T/C (dose: 0.24 mg/kg/injection, schedule: Q01DX Z (sc), vehicle: water): 108 % of control | T/C (dose: 0.31 mg/kg/injection, schedule: Q01DX Z (sc), vehicle: water): 109 % of control and 110 % of control | T/C (dose: 0.31 mg/kg/injection, schedule: Q#A X Z (sc), vehicle: water): 122 % of control | T/C (dose: 0.4 mg/kg/injection, schedule: Q01DX Z (sc), vehicle: water): 116 % of control | T/C (dose: 0.47 mg/kg/injection, schedule: Q01DX Z (sc), vehicle: water): 120 % of control | T/C (dose: 0.52 mg/kg/injection, schedule: Q01DX Z (sc), vehicle: water): 109 % of control and 113 % of control | T/C (dose: 0.52 mg/kg/injection, schedule: Q02DX Z (sc), vehicle: water): 100 % of control | T/C (dose: 0.78 mg/kg/injection, schedule: Q01DX Z (sc), vehicle: water): 170 % of control | T/C (dose: 0.86 mg/kg/injection, schedule: Q01DX Z (sc), vehicle: water): 155 % of control | T/C (dose: 0.86 mg/kg/injection, schedule: Q02DX Z (sc), vehicle: water): 104 % of control | T/C (dose: 0.86 mg/kg/injection, schedule: Q## X Z (sc), vehicle: water): 100 % of control | T/C (dose: 1.3 mg/kg/injection, schedule: Q01DX Z (sc), vehicle: water): 160 % of control | T/C (dose: 1.44 mg/kg/injection, schedule: Q01DX Z (sc), vehicle: water): 150 % of control | T/C (dose: 1.44 mg/kg/injection, schedule: Q02DX Z (sc), vehicle: water): 109 % of control | T/C (dose: 1.44 mg/kg/injection, schedule: Q## X Z (sc), vehicle: water): 109 % of control | T/C (dose: 2.16 mg/kg/injection, schedule: Q01DX Z (sc), vehicle: water): 150 % of control | T/C (dose: 2.4 mg/kg/injection, schedule: Q## X Z (sc), vehicle: water): 104 % of control | T/C (dose: 3.11 mg/kg/injection, schedule: Q01DX Z (sc), vehicle: water): 116 % of control | T/C (dose: 3.6 mg/kg/injection, schedule: Q01DX Z (sc), vehicle: water): 150 % of control | T/C (dose: 4.0 mg/kg/injection, schedule: Q02DX Z (sc), vehicle: water): 118 % of control | T/C (dose: 4.0 mg/kg/injection, schedule: Q## X Z (sc), vehicle: water): 113 % of control | T/C (dose: 5.18 mg/kg/injection, schedule: Q01DX Z (sc), vehicle: water): 116 % of control | T/C (dose: 6.72 mg/kg/injection, schedule: Q02DX Z (sc), vehicle: water): 154 % of control | T/C (dose: 6.72 mg/kg/injection, schedule: Q## X Z (sc), vehicle: water): 109 % of control | T/C (dose: 8.64 mg/kg/injection, schedule: Q01DX Z (sc), vehicle: water): 100 % of control | T/C (dose: 10.0 mg/kg/injection, schedule: Q01DX Z (sc), vehicle: water): 120 % of control | T/C (dose: 10.0 mg/kg/injection, schedule: Q## X Z (sc), vehicle: water): 110 % of control | T/C (dose: 11.2 mg/kg/injection, schedule: Q## X Z (sc), vehicle: water): 109 % of control | T/C (dose: 14.4 mg/kg/injection, schedule: Q01DX Z (sc), vehicle: water): 104 % of control | T/C (dose: 17.0 mg/kg/injection, schedule: Q07DX Z (sc), vehicle: water): 120 % of control | T/C (dose: 17.0 mg/kg/injection, schedule: Q## X Z (sc), vehicle: water): 110 % of control | T/C (dose: 24.0 mg/kg/injection, schedule: Q01DX Z (sc), vehicle: water): 100 % of control | T/C (dose: 28.0 mg/kg/injection, schedule: Q07DX Z (sc), vehicle: water): 120 % of control | T/C (dose: 28.0 mg/kg/injection, schedule: Q## X Z (sc), vehicle: water): 115 % of control | T/C (dose: 40.0 mg/kg/injection, schedule: Q01DX Z (sc), vehicle: water): 100 % of control | T/C (dose: 47.0 mg/kg/injection, schedule: Q01DX001 (sc), vehicle: water): 115 % of control | T/C (dose: 47.0 mg/kg/injection, schedule: Q07DX Z (sc), vehicle: water): 110 % of control | T/C (dose: 47.0 mg/kg/injection, schedule: Q## X Z (sc), vehicle: water): 110 % of control and 120 % of control | T/C (dose: 78.0 mg/kg/injection, schedule: Q01DX001 (sc), vehicle: water): 120 % of control | T/C (dose: 78.0 mg/kg/injection, schedule: Q07DX Z (sc), vehicle: water): 120 % of control | T/C (dose: 78.0 mg/kg/injection, schedule: Q## X Z (sc), vehicle: water): 110 % of control and 120 % of control | T/C (dose: 130.0 mg/kg/injection, schedule: Q01DX001 (sc), vehicle: water): 120 % of control | T/C (dose: 130.0 mg/kg/injection, schedule: Q07DX Z (sc), vehicle: water): 120 % of control | T/C (dose: 216.0 mg/kg/injection, schedule: Q07DX Z (sc), vehicle: water): 120 % of control | T/C (dose: 216.0 mg/kg/injection, schedule: Q## X Z (sc), vehicle: water): 160 % of control | T/C (dose: 360.0 mg/kg/injection, schedule: Q07DX Z (sc), vehicle: water): 120 % of control

CCOS(C)(=O)=O
T/C (dose: 14.0 mg/kg/injection, schedule: Q01DX Z (sc), vehicle: saline): 100 % of control | T/C (dose: 23.0 mg/kg/injection, schedule: Q01DX Z (sc), vehicle: saline): 95 % of control | T/C (dose: 39.0 mg/kg/injection, schedule: Q01DX Z (sc), vehicle: saline): 100 % of control | T/C (dose: 65.0 mg/kg/injection, schedule: Q01DX Z (sc), vehicle: saline): 90 % of control | T/C (dose: 108.0 mg/kg/injection, schedule: Q01DX Z (sc), vehicle: saline): 95 % of control | T/C (dose: 180.0 mg/kg/injection, schedule: Q01DX Z (sc), vehicle: saline): 90 % of control

O=NN(CCCl)C(=O)NC1CCCCC1
T/C (dose: 2.5 mg/kg/injection, schedule: Q01DX009 (sc), vehicle: other): 123 % of control | T/C (dose: 3.0 mg/kg/injection, schedule: Q01DX Z (sc), vehicle: carboxymethylcellulose (CMC)): 110 % of control | T/C (dose: 5.0 mg/kg/injection, schedule: Q01DX009 (sc), vehicle: other): 158 % of control | T/C (dose: 5.0 mg/kg/injection, schedule: Q01DX Z (oral), vehicle: carboxymethylcellulose (CMC)): 221 % of control | T/C (dose: 5.0 mg/kg/injection, schedule: Q01DX Z (sc), vehicle: carboxymethylcellulose (CMC)): 120 % of control | T/C (dose: 8.0 mg/kg/injection, schedule: Q01DX009 (ip), vehicle: other): 152 % of control | T/C (dose: 8.4 mg/kg/injection, schedule: Q01DX Z (oral), vehicle: carboxymethylcellulose (CMC)): 447 % of control | T/C (dose: 8.4 mg/kg/injection, schedule: Q01DX Z (sc), vehicle: carboxymethylcellulose (CMC)): 315 % of control and 421 % of control | T/C (dose: 8.4 mg/kg/injection, schedule: Q07DX Z (sc), vehicle: carboxymethylcellulose (CMC)): 100 % of control | T/C (dose: 10.0 mg/kg/injection, schedule: Q01DX009 (sc), vehicle: other): 160 % of control | T/C (dose: 14.0 mg/kg/injection, schedule: Q01DX001 (sc), vehicle: carboxymethylcellulose (CMC)): 120 % of control | T/C (dose: 14.0 mg/kg/injection, schedule: Q01DX Z (oral), vehicle: carboxymethylcellulose (CMC)): 410 % of control | T/C (dose: 14.0 mg/kg/injection, schedule: Q01DX Z (sc), vehicle: carboxymethylcellulose (CMC)): 400 % of control and 560 % of control | T/C (dose: 14.0 mg/kg/injection, schedule: Q07DX Z (sc), vehicle: carboxymethylcellulose (CMC)): 165 % of control | T/C (dose: 20.0 mg/kg/injection, schedule: Q01DX009 (sc), vehicle: other): 163 % of control | T/C (dose: 23.0 mg/kg/injection, schedule: Q01DX001 (sc), vehicle: carboxymethylcellulose (CMC)): 150 % of control | T/C (dose: 23.0 mg/kg/injection, schedule: Q01DX Z (oral), vehicle: carboxymethylcellulose (CMC)): 215 % of control | T/C (dose: 23.0 mg/kg/injection, schedule: Q01DX Z (sc), vehicle: carboxymethylcellulose (CMC)): 265 % of control and 273 % of control | T/C (dose: 23.0 mg/kg/injection, schedule: Q07DX Z (sc), vehicle: carboxymethylcellulose (CMC)): 170 % of control | T/C (dose: 32.0 mg/kg/injection, schedule: Q01DX009 (ip), vehicle: other): 120 % of control | T/C (dose: 39.0 mg/kg/injection, schedule: Q01DX001 (sc), vehicle: carboxymethylcellulose (CMC)): 295 % of control | T/C (dose: 39.0 mg/kg/injection, schedule: Q01DX Z (oral), vehicle: carboxymethylcellulose (CMC)): 157 % of control | T/C (dose: 39.0 mg/kg/injection, schedule: Q07DX Z (sc), vehicle: carboxymethylcellulose (CMC)): 750 % of control | T/C (dose: 65.0 mg/kg/injection, schedule: Q01DX001 (sc), vehicle: carboxymethylcellulose (CMC)): 355 % of control | T/C (dose: 65.0 mg/kg/injection, schedule: Q07DX Z (sc), vehicle: carboxymethylcellulose (CMC)): 330 % of control | T/C (dose: 108.0 mg/kg/injection, schedule: Q01DX001 (sc), vehicle: carboxymethylcellulose (CMC)): 750 % of control
